Assays:
bedstraw = experiment: Test B pre/postemergence bedstraw; type: in vivo, Galium aparine; details: Preemergence
Method in brief: (§1)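 Response is a visual 0-to-10 score relative to untreated plants, where 0 means no effect and 10 means complete control, taken twelve to sixteen days after application. Treatments went onto soil at planting and onto foliage of 1- to 4-leaf plants, using a surfactant-containing non-phytotoxic solvent.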

blackgrass = experiment: Test B pre/postemergence blackgrass; type: in vivo, Alopecurus myosuroides
Method in brief: as §1

surinam grass = experiment: Test B pre/postemergence surinam grass; type: in vivo, Brachiaria decumbens
Method in brief: as §1

corn = experiment: Test B pre/postemergence corn; type: in vivo, Zea mays
Method in brief: as §1

crabgrass = experiment: Test B pre/postemergence crabgrass; type: in vivo, Digitaria sanguinalis
Method in brief: as §1

pigweed = experiment: Test B pre/postemergence pigweed; type: in vivo, Amaranthus retroflexus
Method in brief: as §1

rape = experiment: Test B pre/postemergence rape; type: in vivo, Brassica napus
Method in brief: as §1

soybean = experiment: Test B pre/postemergence soybean; type: in vivo, Glycine max
Method in brief: as §1

sugar beet = experiment: Test B pre/postemergence sugar beet; type: in vivo, Beta vulgaris
Method in brief: as §1

velvetleaf = experiment: Test B pre/postemergence velvetleaf; type: in vivo, Abutilon theophrasti
Method in brief: as §1

wheat = experiment: Test B pre/postemergence wheat; type: in vivo, Triticum aestivum
Method in brief: as §1

wild oat = experiment: Test B pre/postemergence wild oat; type: in vivo, Avena fatua
Method in brief: as §1

purple nutsedge = experiment: Test B pre/postemergence purple nutsedge; type: in vivo, Cyperus rotundus
Method in brief: as §1

rice = experiment: Test B flood test rice; type: in vivo, Oryza sativa
Method in brief: (§2)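 Flood test on plants grown to the 2-leaf stage; treated plants kept in greenhouse twelve to sixteen days, then visually rated against controls on a 0 (no effect) to 10 (complete control) scale.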

smallflower flatsedge = experiment: Test B flood test smallflower flatsedge; type: in vivo, Cyperus difformis
Method in brief: as §2

duck salad = experiment: Test B flood test duck salad; type: in vivo, Heteranthera limosa
Method in brief: as §2

[1] = Postemergence, Rate 31 g/ha, visual rating, scale 0 to 10 (0 no effect, 10 complete control)
[2] = Postemergence, Rate 125 g/ha, scale 0 to 10, 0 is no effect, 10 is complete control
[3] = Postemergence, Rate 250 g/ha, scale 0 to 10
[4] = Preemergence, Rate 31 g/ha, visual rating, scale 0 to 10 (0 no effect, 10 complete control)
[5] = Preemergence, Rate 62 g/ha, scale of 0 to 10 where 0 is no effect and 10 is complete control
[6] = Preemergence, Rate 125 g/ha, scale 0 to 10, 0 is no effect, 10 is complete control
[7] = Preemergence, Rate 250 g/ha, scale 0 to 10, 0 is no effect, 10 is complete control
[8] = Rate 62 g/ha, Postemergence, scale 0 to 10, 0 no effect, 10 complete control
[9] = Rate 31 g/ha, Pre-emergence section (flood test species), scale 0 to 10
[10] = Rate 62 g/ha, flood test species, Pre-emergence, visual evaluation after twelve to sixteen days
[11] = Rate 125 g/ha, under heading Pre-emergence, flood test species, visual evaluation after twelve to sixteen days
[12] = Rate 250 g/ha, Pre-emergence (flood test species), scale 0 to 10, 0 is no effect, 10 is complete control

CC(C)N(C(=O)n1oc(=O)n(CC[N+](=O)[O-])c1=O)c1ccc(Cl)cc1 [Compound 483]
0: Bedstraw plant response rating (bedstraw; Rate 31 g/ha, visual rating, scale 0 to 10 (0 no effect, 10 complete control)) | Plant response rating, Bedstraw (bedstraw; Rate 62 g/ha, scale of 0 to 10 where 0 is no effect and 10 is complete control) | Bedstraw plant response rating (bedstraw; Rate 125 g/ha, scale 0 to 10, 0 is no effect, 10 is complete control) | Bedstraw plant response rating (bedstraw; Rate 250 g/ha, scale 0 to 10, 0 is no effect, 10 is complete control) | Blackgrass plant response rating (blackgrass; [1]) | Blackgrass plant response rating (blackgrass; [2]) | Blackgrass plant response rating (blackgrass; [3]) | Blackgrass plant response rating (blackgrass; [4]) | Plant response rating, Blackgrass (blackgrass; [5]) | Blackgrass plant response rating (blackgrass; [6]) | Blackgrass plant response rating (blackgrass; [7]) | Blackgrass plant response rating (blackgrass; [8]) | B. signalgrass plant response rating (surinam grass; [1]) | B. signalgrass plant response rating (surinam grass; [2]) | B. signalgrass plant response rating (surinam grass; Postemergence, Rate 250 g/ha, scale 0 to 10, 0 no effect, 10 complete control) | B. signalgrass plant response rating (surinam grass; [4]) | Plant response rating, B. signalgrass (surinam grass; [5]) | B. signalgrass plant response rating (surinam grass; [6]) | B. signalgrass plant response rating (surinam grass; [7]) | B. signalgrass plant response rating (surinam grass; [8]) | Corn plant response rating (corn; [1]) | Corn plant response rating (corn; [2]) | Corn plant response rating (corn; [3]) | Corn plant response rating (corn; [4]) | Plant response rating, Corn (corn; [5]) | Corn plant response rating (corn; [6]) | Corn plant response rating (corn; [7]) | Corn plant response rating (corn; [8]) | Crabgrass plant response rating (crabgrass; [1]) | Crabgrass plant response rating (crabgrass; [2]) | Crabgrass plant response rating (crabgrass; [3]) | Crabgrass plant response rating (crabgrass; [4]) | Plant response rating, Crabgrass (crabgrass; [5]) | Crabgrass plant response rating (crabgrass; [6]) | Crabgrass plant response rating (crabgrass; [7]) | Crabgrass plant response rating (crabgrass; [8]) | Redroot pigweed plant response rating (pigweed; [1]) | Redroot pigweed plant response rating (pigweed; [2]) | Redroot pigweed plant response rating (pigweed; [3]) | Plant response rating, Redroot pigweed (pigweed; [5]) | Redroot pigweed plant response rating (pigweed; [6]) | Redroot pigweed plant response rating (pigweed; [7]) | Redroot pigweed plant response rating (pigweed; [8]) | Rape plant response rating (rape; [1]) | Rape plant response rating (rape; [2]) | Rape plant response rating (rape; [3]) | Plant response rating, Rape (rape; [5]) | Rape plant response rating (rape; [6]) | Rape plant response rating (rape; [7]) | Rape plant response rating (rape; [8]) | Soybean plant response rating (soybean; [1]) | Soybean plant response rating (soybean; [2]) | Soybean plant response rating (soybean; [3]) | Plant response rating, Soybean (soybean; [5]) | Soybean plant response rating (soybean; [6]) | Soybean plant response rating (soybean; [7]) | Soybean plant response rating (soybean; [8]) | Sugarbeets plant response rating (sugar beet; [1]) | Sugarbeets plant response rating (sugar beet; [2]) | Sugarbeets plant response rating (sugar beet; [3]) | Plant response rating, Sugarbeets (sugar beet; [5]) | Sugarbeets plant response rating (sugar beet; [6]) | Sugarbeets plant response rating (sugar beet; [7]) | Sugarbeets plant response rating (sugar beet; [8]) | Velvetleaf plant response rating (velvetleaf; [1]) | Velvetleaf plant response rating (velvetleaf; [2]) | Velvetleaf plant response rating (velvetleaf; [3]) | Plant response rating, Velvetleaf (velvetleaf; [5]) | Velvetleaf plant response rating (velvetleaf; [6]) | Velvetleaf plant response rating (velvetleaf; [7]) | Velvetleaf plant response rating (velvetleaf; [8]) | Wheat plant response rating (wheat; [1]) | Wheat plant response rating (wheat; [2]) | Wheat plant response rating (wheat; [3]) | Plant response rating, Wheat (wheat; [5]) | Wheat plant response rating (wheat; [6]) | Wheat plant response rating (wheat; [7]) | Wheat plant response rating (wheat; [8]) | Wild oats plant response rating (wild oat; [1]) | Wild oats plant response rating (wild oat; [2]) | Wild oats plant response rating (wild oat; [3]) | Plant response rating, Wild oats (wild oat; [5]) | Wild oats plant response rating (wild oat; [6]) | Wild oats plant response rating (wild oat; [7]) | Wild oats plant response rating (wild oat; [8]) | Nutsedge plant response rating (purple nutsedge; [1]) | Nutsedge plant response rating (purple nutsedge; [2]) | Nutsedge plant response rating (purple nutsedge; [3]) | Plant response rating, Nutsedge (purple nutsedge; [5]) | Nutsedge plant response rating (purple nutsedge; [6]) | Nutsedge plant response rating (purple nutsedge; [7]) | Nutsedge plant response rating (purple nutsedge; [8]) | Rice plant response rating (rice; [9]) | Plant response rating, Rice (0 to 10 scale, 0 is no effect, 10 is complete control) (rice; [10]) | Rice plant response rating (0 to 10 scale, 0 is no effect, 10 is complete control) (rice; [11]) | Rice plant response rating (rice; [12]) | S. Flatsedge plant response rating (smallflower flatsedge; [9]) | Plant response rating, S. Flatsedge (0 to 10 scale, 0 is no effect, 10 is complete control) (smallflower flatsedge; [10]) | S. Flatsedge plant response rating (0 to 10 scale, 0 is no effect, 10 is complete control) (smallflower flatsedge; [11]) | S. Flatsedge plant response rating (smallflower flatsedge; [12]) | Ducksalad plant response rating (duck salad; [9]) | Plant response rating, Ducksalad (0 to 10 scale, 0 is no effect, 10 is complete control) (duck salad; [10]) | Ducksalad plant response rating (0 to 10 scale, 0 is no effect, 10 is complete control) (duck salad; [11]) | Ducksalad plant response rating (duck salad; [12])
